Laboratory results as given in a melting point compilation (Tetko et al.; mined from patent text by program, amines drawn as free bases though some values may be those of a salt).

For NC(=O)C(F)(I)C(F)(F)F (centres undefined), the melting point was 75 to 77 °C. Molecule O=C1c2ccccc2C(=O)N1CCCc1cn(C(c2ccccc2)(c2ccccc2)c2ccccc2)cn1 has a melting point of 211 to 214 °C. N#Cc1c(N)oc2ccccc2c1=O showed a melting point of 315 to 320 °C. CC[Si](C#Cc1c2ccccc2c2ccc3c(C#C[Si](CC)(CC)CC)c4ccccc4c4ccc1c2c34)(CC)CC showed a melting point of 300 to 307 °C. CC(C)n1nc(-c2sc(NC(=O)c3ccc(Cl)cc3)nc2-c2ccccc2)ccc1=O showed a melting point of 205 to 206 °C. Work on O=C(NC(CCc1ccccc1)C(=O)Nc1n[nH]c(=S)s1)OCC1c2ccccc2-c2ccccc21 (centres undefined) yielded a melting point of 186 to 187 °C. In the case of O=c1c2cccc(Cl)c2nc2n1CCCO2, the melting point is reported as 207 to 208 °C. N#Cc1cnc2cc(-c3ccc(C=O)cc3)sc2c1Cl showed a melting point of 300 to 305 °C. For O=c1cc(-c2ccccc2)oc2c(C=S)cccc12, the melting point was 153 to 157 °C. Molecule CSC(=Cc1cnn(-c2c(Cl)cc(C(F)(F)F)cc2Cl)n1)S(C)=O (centres undefined) has a melting point of 122 to 123 °C. Molecule CC(C)n1nc(-c2nc(-c3ccccc3)c(N)nc2-c2ccccc2)ccc1=O has a melting point of 225 to 226 °C. COc1cc(N)c(Cl)cc1C(=O)NN1CCN(Cc2ccc(N(C)C)cc2)CC1 showed a melting point of 208 to 210 °C. For COc1ccc(S(=O)(=O)Nc2ccccc2NC(=O)c2ccc(F)cc2)cc1, the melting point was 169 to 170 °C. CCOC(=O)CC(=O)NCc1ccccc1 gave a melting point of 50 to 52 °C. In the case of CN1C(=O)CC[C@]2(C)c3ccc(-c4c5ccccc5cc5ccccc45)cc3CC[C@@H]12, the melting point is reported as 95 to 110 °C. For CCC1NC(c2cc(Cl)nc(Cl)c2)=NC(=O)C1(CC)C(=O)OC (centres undefined), the melting point was 202 to 203 °C. For Cc1nc(CCOc2ccc(N)cc2)oc1-c1ccccc1, the melting point was 106 to 107 °C. For CC(C)OC(=O)c1ccc(Cl)cc1S(N)(=O)=O, the melting point was 140 to 142 °C. Molecule Cc1cc(CN2CCN(c3nc(C)c(C(=O)NCc4cccnc4)s3)C2=O)no1 has a melting point of 185 to 188 °C. For Cc1cnc(-c2ccc(Cl)s2)nc1Cl, the melting point was 137 °C. Work on O=C(c1ccc(I)cc1)c1cc2c3c(c1)c(-c1cccc(Cl)c1)cc(=O)n3CC2 yielded a melting point of 202 °C. Work on CN(C)C(=O)Cn1nc(-c2ccccc2O)nc1-c1ccccc1O yielded a melting point of 196 to 197 °C. CCCn1c(CCOC)nc2c(N)nc3cc(Oc4ccc(S(C)(=O)=O)cc4)ccc3c21 gave a melting point of 210 to 212 °C. For COc1ccc(C(=O)C2C(Cl)=CC=CC2(C)Cl)c(OC(=O)Cc2ccccc2)c1OC (centres undefined), the melting point was 106 °C. Molecule CC(C=Cc1ccc(C(=O)O)cc1)c1ccccc1 (centres undefined) has a melting point of 127 to 130 °C. O=C(c1cccc(Cl)c1)N1CCc2cc(S(=O)(=O)N3CCN(c4cccc(Cl)c4)CC3)ccc21 showed a melting point of 221 to 222 °C. Work on CN(c1cccc2cc(-c3nccs3)[nH]c12)S(=O)(=O)c1cccnc1Cl yielded a melting point of 203 °C. CC(=O)OCC(COCn1cnc2c(=O)[nH]c(N)nc21)OC(C)=O (centres undefined) gave a melting point of 222 to 224 °C. CC(O)C1C(=O)N2C1=CC(=O)C2C(=O)OCc1ccc([N+](=O)[O-])cc1 (centres undefined) showed a melting point of 92 to 98 °C. Work on CCCc1c(OC(C)=O)cc2oc3cc(Cl)cn3c(=O)c2c1OC(C)=O yielded a melting point of 178 to 179 °C. Work on CCCCCc1cc2c(cc1/C=C/C=C/C(C)=C/C(=O)O)C(C)(C)CCC2(C)C yielded a melting point of 164 to 166 °C. With Cc1nnc(-c2cc(Cl)c(Cl)c(Cl)n2)s1 the melting point was 148 to 150 °C. O=c1[nH]c(=O)n2c3c(cccc13)S(=O)c1ccc(C(F)(F)F)cc1-2 (centres undefined) showed a melting point of 302 to 304 °C. CN1CN(C(=O)c2c(F)cccc2F)C(=O)N(c2ccc(SC(F)F)cc2F)C1 gave a melting point of 135 to 137 °C. For CCN1C(=O)C(=O)N(c2ccc(Cl)cc2C)C1=S, the melting point was 161 to 162 °C. In the case of OC(CCc1ccccc1)c1cnc2sc3cc(F)ccc3n12 (centres undefined), the melting point is reported as 195 to 196 °C. For CCC(CNC(=O)Cc1c(Cl)cncc1Cl)c1cccc(OC)c1 (centres undefined), the melting point was 104 to 105 °C. Cc1c(C=O)c2ccccc2n1C showed a melting point of 129 °C. Molecule Cc1ccc(S(=O)(=O)OC2CCC3(CC2)OCCO3)cc1 has a melting point of 65 to 67.5 °C. Molecule CC(=O)Nc1ccc(S(=O)(=O)Nc2ccn(C3CC3)c(=O)n2)cc1 has a melting point of 139 to 143 °C. With COC(=O)C1=C(C)NC(C)=C(C(=O)OCCCCCCOc2cc(-c3ccc4c(c3)OCO4)[nH]n2)C1c1cccc([N+](=O)[O-])c1 (centres undefined) the melting point was 167 to 169 °C. For Clc1cnc2c(-c3ccccc3)nc(Cl)nc2c1, the melting point was 140 to 141 °C. Molecule C=CCc1c(O)c(Br)cc2c1[C@H](CCNC(=O)CC)CC2 has a melting point of 85 to 87 °C. With COc1cc2c(cc1O)CCN(Cc1ccccc1)C2 the melting point was 134 to 135 °C. In the case of COc1ccc(CSc2cc(Cl)ccc2CN(C)C)cc1, the melting point is reported as 66 to 68 °C. In the case of O=C(O)C1CCC(c2cc3cccnc3c(=O)[nH]2)CC1 (centres undefined), the melting point is reported as > 270 °C. CCn1cc(C(=O)O)c(=O)c2cc(F)c(S(=O)(=O)CC)nc21 showed a melting point of 249 to 252 °C. CCOC(=O)c1ccc(NCCCCCCCCc2ccccc2)cc1 showed a melting point of 61 to 68 °C. CCCCc1nc(SC)c[nH]1 gave a melting point of 64 °C. CC(C)(C)c1cc(CP(=O)(Oc2ccccc2)Oc2ccccc2)cc(C(C)(C)C)c1O showed a melting point of 130 °C. For CC1(C)Cc2c(c(N3CCOCC3)nc3sc4c(NCc5cnc6ccccc6c5)ncnc4c23)CO1, the melting point was 272 to 273 °C. Molecule CN(C)S(=O)(=O)c1ccc(C(O)c2cccc(O[Si](C)(C)C(C)(C)C)c2)cc1 (centres undefined) has a melting point of 100 to 103 °C. CC(=O)Nc1ncc(/C=C/c2ncc(C(C)(C)C)o2)s1 gave a melting point of 275 °C. Work on COCCOc1ccc(/C=C/C(=O)O)c(Oc2ncc(NC(=O)OC(C)(C)C)cc2C)c1 yielded a melting point of 159 to 160 °C. Molecule COc1cc(Br)cc2cc(C(C)=O)oc12 has a melting point of 107 to 109 °C. Cc1ccc2cccc(OCc3c(Cl)ccc(S(=O)(=O)N4CCCC4C(=O)NCCCCCO)c3Cl)c2n1 (centres undefined) gave a melting point of 64 °C. CCOC(=O)C(C#N)=CNc1nccc2c1CCCC2 gave a melting point of 116 to 120 °C. Work on O=C(O)Cn1c(=S)sc2ccccc21 yielded a melting point of 187 to 189 °C. For COC(=O)c1cc(C(=O)Nc2ccncc2)c2cc(Cc3ccc(F)cc3)cnc2c1O, the melting point was 266 to 267 °C. CC(C)(C)Nc1c([N+](=O)[O-])cc([N+](=O)[O-])c2nc(C(F)F)[nH]c12 gave a melting point of 199 to 201 °C. O=C(O)c1ccc2c(c1)OC(c1cc(F)cc(F)c1)(c1cc(F)cc(F)c1)O2 showed a melting point of 96 °C. Work on N#CC1OC(=O)c2cccc(F)c21 (centres undefined) yielded a melting point of 93 to 96 °C. Work on CC(=O)c1cc(-c2ccc(C)cc2)c(OCc2ccccc2)c(C(C)(C)C)c1 yielded a melting point of 104 °C. With O=C(CBr)Nc1ccc(C(=O)O)cc1 the melting point was 241 to 243 °C. With O=C(OCc1ccccc1)C(CC(=O)N1Cc2cscc2C1)Cc1ccccc1 (centres undefined) the melting point was 122 to 124 °C. With CCCn1c(=O)c(-c2ccccc2)c2n(c1=O)C=CCS2=O (centres undefined) the melting point was 174 to 175 °C. C=C(C)C(=O)OCCOc1ccc(N=Nc2ccc(C#N)cc2)cc1C#N showed a melting point of 110 °C. Molecule N#Cc1c(CCC(=O)O)oc2cc(O)ccc2c1=O has a melting point of 300 to 301 °C. Molecule Cc1ccc(C(=S)c2ccc(Cl)cc2)cc1 has a melting point of 134 °C. In the case of CC1(C)CC(=O)c2c(Nc3ccccn3)cn(-c3ccccn3)c2C1, the melting point is reported as 180 to 183 °C. O=C(O)C(O)Cc1ccc(OCCN2CCSc3ccccc32)cc1 (centres undefined) showed a melting point of 74 to 76 °C. For COc1cccc(Nc2ccnc(Nc3cc(NC(C)=O)c(OC)c(OC)c3)n2)c1, the melting point was 158 to 160 °C. For O=C(c1ccc(C(F)(F)F)cc1S(=O)c1ccc(Cl)cc1)c1cnoc1C1CC1 (centres undefined), the melting point was 151 °C. CC(C)(C)OC(=O)NN(C(=O)OC(C)(C)C)C1(c2cccnc2)CCCCC1=O (centres undefined) showed a melting point of 123 to 125 °C. O=C(O)c1cccc(C(=O)C=Cc2ccc(OCc3ccccc3)cc2)c1O showed a melting point of 174 to 175 °C. With C/C(=C\Cn1oc(=O)[nH]c1=O)c1ccc2oc(Cc3nc(-c4ccccc4)oc3C)cc2c1 the melting point was 81 to 83 °C. Work on COc1cccc2c1CCC21NC(=O)c2ccccc21 (centres undefined) yielded a melting point of 222 to 224 °C. CC(=O)Nc1nc(CCc2ccc(NC(=O)CNC(=O)OC(C)(C)C)cc2)c(Cc2ccc(S(C)(=O)=O)cc2)s1 showed a melting point of 186 to 188 °C. Molecule CCOC(=O)Cn1nc(O)c2ccccc21 has a melting point of 181 to 182 °C. For O=C1N(C(c2ccccc2)c2ccccc2)c2ccccc2C12COc1cc(F)c(F)cc12 (centres undefined), the melting point was 213 to 216 °C. With CCOC(=O)c1cccc(Cc2c(C(=O)OCC)n(Cc3cc4c(cc3CC)OCO4)c3ccc(OCOC)cc3c2=O)c1 the melting point was 89 to 96 °C. In the case of O=c1oc(OCCCCBr)c(Cl)c2ccccc12, the melting point is reported as 75 to 77 °C. For CN(CCN(O)C(N)=O)Cc1cccc(Oc2cc(Cl)cc(Cl)c2)c1, the melting point was 111 to 113 °C. Molecule CCc1cn(C2CC(O)C(CCCO)O2)c(=O)[nH]c1=O (centres undefined) has a melting point of 113 to 115 °C. With CCCCCCCCCCOc1cnc(-c2ccc(C(C)O)cc2)nc1 (single isomer, unassigned; (+)) the melting point was 65 to 66 °C. With Nc1ccccc1C(=O)NO the melting point was 140 to 142 °C. For Cc1ccc(S(=O)(=O)Nc2cccc(-c3nnc(-c4ccc(C(=O)O)cc4)o3)c2)cc1, the melting point was > 275 °C. Work on O=C1CCC(N2Cc3c(OCc4ccc(CSc5nc6ccccc6[nH]5)cc4)cccc3C2=O)C(=O)N1 (centres undefined) yielded a melting point of 160 to 162 °C. Work on Cc1cc(Nc2ccnc(Nc3ccc(S(=O)(=O)N4CCC(O)(CN(C)C)CC4)cc3)n2)ccc1F yielded a melting point of 233 °C. For N#Cc1ccc(S(=O)(=O)Nc2cccnc2Nc2ccccc2)cc1, the melting point was 155 to 157 °C. N#CC1=C(C2CCCC2)Nc2n[nH]cc2C1c1cccc(C#N)c1Br (centres undefined) showed a melting point of 247 °C. Molecule COC(=O)c1c(F)cc(OCCNC(=O)OCc2ccccc2)cc1F has a melting point of 95 to 97 °C. Molecule COc1cc2c(c(OC)c1OC)C(=O)C(CCCCCCC1Cc3cc(OC)c(OC)c(OC)c3C1=O)C2 (centres undefined) has a melting point of 129 to 130 °C. Work on CCOC(=O)C(C#N)C(=O)c1cccn1C (centres undefined) yielded a melting point of 74 to 77 °C. Molecule CN(C)CC(=O)N1c2ccccc2N(C)S(=O)(=O)c2ccc(Cl)cc21 has a melting point of 138 to 139 °C. Molecule O=c1[nH]c2ncccc2c(=O)n1-c1ccccc1 has a melting point of 304 °C. With N#CCN1CCC(=C2c3cc(F)ccc3CCn3ccnc32)CC1 the melting point was 198 °C. Work on O=C(O)C1=Cc2cc(Cl)c(Sc3ccc(Cl)cc3)cc2OC1C(F)(F)F (centres undefined) yielded a melting point of 252 to 253 °C. In the case of Nc1cc(Oc2ccncc2)ccc1[N+](=O)[O-], the melting point is reported as 170 to 175 °C.
